Measurements: patent US7407960B2, “Substituted heterocyclic compounds” (CV Therapeutics, Inc., priority 2002, dated 2008)

System: Palmitoyl CoA oxidation
Experiment: Palmitoyl CoA oxidation in isolated rat heart mitochondria
Assay type: biochemical
Settings: 1-C14 palmitoyl CoA, 15 min at 30° C., read-out: PalmCoA IC50
Method: Rat heart mitochondria were isolated by the method of Nedergard and Cannon (Methods in Enzymol. 55, 3, 1979).
Palmitoyl CoA oxidation—The Palmityl CoA oxidation was carried out in a total volume of 100 micro liters containing the following agents: 110 mM KCl, 33 mM Tris buffer at pH 8, 2 mM KPi, 2 mM MgCl2, 0.1 mM EDTA, 14.7 microM defatted BSA, 0.5 mM malic acid, 13 mM carnitine, 1 mM ADP, 52 micrograms of mitochondrial protein, and 16 microM 1-C14 palmitoyl CoA (Sp. Activity 60 mCi/mmole; 20 microCi/ml, using 5 microliters per assay). The compounds of this invention were added in a DMSO solution at the following concentrations: 100 micro molar, 30 micro molar, and 3 micro molar. In each assay, a DMSO control was used. After 15 min at 30° C., the enzymatic reaction was centrifuged (20,000 g for 1 min), and 70 microliters of the supernatant was added to an activated reverse phase silicic acid column (approximately 0.5 ml of silicic acid). The column was eluted with 2 ml of water, and 0.5 ml of the eluent was used for scintillation counting to determine the amount of C^14 trapped as C^14 bicarbonate ion.

IC50: 150 nM
SMILES: Cc1nc2cc(OC[C@H](O)CN3CCN(CC(=O)Nc4cccc5c4CCC5)CC3)ccc2s1 [2-{4-[(2R)-2-hydroxy-3-(2-methylbenzothiazol-5-yloxy)propyl]piperazinyl}-N-indan-4-ylacetamide]
